US8207314B2, “Tumor antigens for prevention and/or treatment of cancer” (Sanofi Pasteur Limited, priority 2003, dated 2012)

Tests used:
[1] = tested on: peptide-loaded human T2 lymphoma cell targets; experiment: CTL killing of BFA4 peptide-pulsed target cells; type: cell-based; settings: single BFA4 peptides, listing = result
HLA-A*0201 human T cells = experiment: IFN-γ ELISPOT of human T cells activated with BFA5/NYBR-1 peptide pools and single peptides; type: cell-based; settings: for IFN-γ secretion in T cells from both donors: donors AP10 and AP31
Protocol: A library of 100 peptides from the BFA5/NYBR-1 coding sequence that are predicted to be medium to high binders to HLA-A*0201 were designed using Rammensee and Parker algorithms. The library was sub-divided into 10 pools of ten peptides (see Table XI), and each pool was used to activate 10 different T cell cultures after pulsing peptides on to mature autologous dendritic cells.
ELISPOT analysis was performed on human T-cell cultures activated through four rounds of stimulation with each pool of BFA5 peptides. In FIG. 13A, the numbers under the X-axis indicate the number of each peptide pool (1-10). Reactivity against a CMV pp65 peptide, and a Flu matrix peptide were used as positive controls for T-cell activation in the experiments. Each experiment was performed with PBMC and dendritic cells from a single HLA-A*0201^+ donor designated as “AP10”. […] Similar results were obtained for both BFA4 and BFA5/NYBR-1 with a different HLA-A*0201. […] Cultures having a reading of 600 spots have more than this number of spots.
A large number of the BFA5 peptide pools of are reactive as shown by the high levels of IFN-γ production (FIG. 13A). Each reactive peptide pool was then separated into individual peptides and analyzed for immunogenicity using ELISPOT analysis to isolate single reactive BFA5 peptides. […] Similar results were obtained in two independent PBMC culture experiments.

peptide-loaded T2 cells = experiment: 51Cr-release CTL assay with BFA5 peptide-activated human T cells; type: cell-based; settings: donors AP10 and AP31
Protocol: In addition to ELISPOT analysis, human T cells activated by BFA5 peptides were assayed to determine their ability to function as CTL. The cells were activated using peptide-pulsed dendritic cells followed by CD40 ligand-activated B cells (5 rounds of stimulation). The experiment shown was performed with isolated PBMC from HLA-A*0201^+ donor AP31. Isolated T cells were tested in ^51Cr-release assays using peptide-loaded T2 cells. The % specific lysis at a 10:1, 5:1, and 1:1 T-cell to target ratio is shown for T2 cells pulsed with either pools of BFA5/NYBR-1 peptides or with individual peptides. […] CTL activity (percent specific lysis) induced by the control HIV peptide was generally <10%. Similar results were obtained with another PBMC donor expressing HLA-A*0201 (AP10). […]

[2] = tested on: Human PBMC from an HLA-A2.1 positive donor; experiment: IFN-γ ELISPOT of human T cells activated with BFY3 peptide pools and deconvolution to single peptides; type: cell-based; settings: BFY3 nonamer peptides; listing = result
Description: Human PBMC from an HLA-A2.1 positive donor designated AP31 were activated with autologous dendritic cells pulsed with different pools of 9-mer peptides from the BFY3 antigen (see Table I for list). The activated T cells were re-stimulated after 12 days with activated autologous CD40-ligand-activated B cells pulsed with the same respective peptide pools for another 8 to 10 days. This secondary activation was repeated 2 more time for a total of 4 stimulations. The activated T cells were isolated after the 4th stimulation and subjected to ELISPOT analysis for human IFN-γ production against their respective BFY3 peptide pools as shown. The blue bars show reactivity against the BFY3 peptide pools and the red bars are for an HLA-A2.1-binding HIV peptide as a negative control. Standard deviations are indicated. The experiment was repeated 2 times on activated T cells from different rounds of peptide stimulation with the similar results (FIG. 17A).
The BFY3 peptide pools were deconvoluted and studied in IFN-γ ELISPOT assays. Stimulation was performed as described earlier for the other antigens described. After 4 rounds of stimulation, the T cells from each culture were harvested and subjected to ELISPOT analysis for IFN-γ production with each individual peptide in each pool. FIG. 17B illustrates individual peptide reactivity for each specific pool.

[3] = tested on: Non-transfected CosA2 cells; experiment: Zeocin selection of non-transfected cells; type: cell-based; settings: for confluency of surviving cells: three weeks
Protocol: A stable transfection study was initiated to obtain stable clones of BFA4 expressing COS A2 cells. These cells are useful for in vitro stimulation assays pcDNA 3.1 zeo^R/BFA4 (2.5 μg and 20 μg), and pcDNA 3.1 zeo^R/BFA4/MycHis tag (2.5 μg) were used to study expression of BFA4). pGL3 Luciferase (2.5 μg) was used as a control vector to monitor transfection efficiency. The Gene porter reagent was used to facilitate transfection of DNA vectors. After 48 h post-transfection, whole cell extract were prepared by scraping cells in the cell lysis reagent (200 μl) and 1 cycle of freeze-thaw at −20° C./37° C. for first experiment. Transfected cells obtained from the second experiment were trypsinized, frozen stock established and cells were plated in increasing concentrations of Zeocin (0, 250, 500, 750 and 1000 μg/ml). Non-transfected CosA2cells survived at 60-80% confluency for three weeks at 100 μg/ml (Zeocin) and 10% confluency at 250 μg/ml (Zeocin).

[4] = tested on: targets pulsed with corresponding peptide pools; experiment: CTL killing of targets pulsed with BFY3 peptide pools or peptides; type: cell-based, human; settings: for Peptides eliciting CTL activity (peptide pulsed targets): BFY3 nonamer peptides, listing = result; for recognition of single peptides by CTL: BFY3 peptides, peptide-pulsed targets
Protocol: (§1) In addition to ELISPOT analysis, human T cells activated by BFY3 peptides were assayed for reactivity. Ten pools of peptides consisting often peptides per pool used to generate CTL. These 10 groups of effectors used to kill targets pulsed with corresponding peptide pools. […]

[5] = tested on: CosA2 cells transfected with BFY3; experiment: CTL killing of BFY3-transfected cells; type: cell-based; settings: CTL generated from BFY3 peptide pools
Protocol: as §1

BFA4 = experiment: Rabbit antibody titers after immunization with BFA4 22-mer peptides; type: in vivo
Description: For monitoring purposes, rabbit anti-BFA4 polyclonal antibodies were generated. Six peptides (22-mers) were designed and synthesized to elicit antibody response to BFA4, as shown below:
Rabbits were immunized with the peptides, serum was isolated, and the following antibody titers were observed: […]

[6] = first-listed rabbit of the pair
[7] = second-listed rabbit of the pair

How did the “Strong CTL Killing (listed as highly immunoreactive peptide)” value (“Strong CTL Killing” below) [1] turn out when HLARPIYGL [CLP 2486] was run?
The value was “HLARPIYGL”.

Which results are given for ELCSVRLTL [CLP 3050]?
IFN-γ secretion in T cells from both donors (HLA-A*0201 human T cells): induce; CTL activity in T cells from both donors (peptide-loaded T2 cells): induce

ILIDSGADI [CLP 3005] was tested. Which “IFN-γ secretion in T cells from both donors” value (HLA-A*0201 human T cells) did it give?
The value was “induce”.

What about the “CTL activity in T cells from both donors” value (peptide-loaded T2 cells) of the same molecule?
The value was “induce”.

YLTEALKAM [CLP 3415] was tested. Which “Peptides eliciting strong IFN-γ ELISPOT activity” value [2] did it give?
The value was “YLTEALKAM”.

What does the source list for Cc1c(N)nc([C@H](CC(N)=O)NC[C@H](N)C(N)=O)nc1C(=O)N[C@H](C(=O)N[C@H](C)[C@@H](O)[C@H](C)C(=O)N[C@H](C(=O)NCCC1=N[C@@H](c2nc(C(=O)NCCCCN=C(N)N)cs2)CS1)[C@@H](C)O)[C@@H](O[C@@H]1O[C@@H](CO)[C@@H](O)[C@H](O)[C@@H]1O[C@H]1O[C@H](CO)[C@@H](O)[C@H](OC(N)=O)[C@@H]1O)c1cnc[nH]1 [Zeocin]?
confluency of surviving cells ([3]; 100 μg/ml): 60-80%; confluency of surviving cells ([3]; 250 μg/ml): 10%; live cells ([3]; 500-1000 μg/ml, after three weeks): live cells were not observed

What does the source list for KYKVTVAEV [CLP 3362]?
Peptides eliciting strong IFN-γ ELISPOT activity [2]: KYKVTVAEV; Peptides eliciting CTL activity (peptide pulsed targets) [4]: KYKVTVAEV; recognition of single peptides by CTL [4]: Moderately recognized

How did the “Peptides eliciting strong IFN-γ ELISPOT activity” value [2] turn out when SHGFGSPAV [CLP 3407] was run?
The value was “SHGFGSPAV”.

For GLHRNNAQV [CLP 2520], which “Strong CTL Killing” value [1] is on record?
The value was “GLHRNNAQV”.

Which results are given for ILSVVAKLL [CLP 3011]?
IFN-γ secretion in T cells from both donors (HLA-A*0201 human T cells): induce; CTL activity in T cells from both donors (peptide-loaded T2 cells): induce

Which “Peptides eliciting strong IFN-γ ELISPOT activity” value [2] does the source give for NVTLLTSLV [CLP 3380] here?
Its value is “NVTLLTSLV”.

Which “Strong CTL Killing” value [1] does the source give for YVPYPTFNL [CLP 2509] here?
Its value is “YVPYPTFNL”.

Which “Peptides eliciting strong IFN-γ ELISPOT activity” value [2] does the source give for LNASLLGGV [CLP 3366] here?
The value was “LNASLLGGV”.

Which “Peptides eliciting strong IFN-γ ELISPOT activity” value [2] does the source give for KLDKIGLNL [CLP 3372] here?
Its value is “KLDKIGLNL”.

And the “Peptides eliciting CTL activity (peptide pulsed targets)” value [4]?
The value was “KLDKIGLNL”.

What about the “recognition of single peptides by CTL” value [4] of the same molecule?
Its value is “strongly recognized”.

What does the source list for HAIEEVPHV [CLP 3344]?
Peptides eliciting strong IFN-γ ELISPOT activity [2]: HAIEEVPHV; Peptides eliciting CTL activity (peptide pulsed targets) [4]: HAIEEVPHV; recognition of single peptides by CTL [4]: strongly recognized; killing of CosA2 cells transfected with BFY3 by CTL [5]: responsible for this cytotoxicity

Which “Strong CTL Killing” value [1] does the source give for RNMLAFSFP [CLP 2425] here?
Its value is “RNMLAFSFP”.

Which “Peptides eliciting strong IFN-γ ELISPOT activity” value [2] does the source give for LLGGVLRRA [CLP 3369] here?
Its value is “LLGGVLRRA”.

And the “Peptides eliciting CTL activity (peptide pulsed targets)” value [4]?
Its value is “LLGGVLRRA”.

What about the “recognition of single peptides by CTL” value [4] of the same molecule?
The value was “Moderately recognized”.

For NLFGGVVNP [CLP 3351], which “Peptides eliciting strong IFN-γ ELISPOT activity” value [2] is on record?
Its value is “NLFGGVVNP”.

With KSQIEPAFH [CLP 3037] as the molecule, how does the “BFA5 peptides eliciting high IFN-γ release (>200 spots/100,000 cells)” value (HLA-A*0201 human T cells; Donor AP31, listing = result) read?
Its value is “KSQEPAFHI”.

Which “Titer (Bleed 2)” value (BFA4; [6]) does the source give for MVRKKNPPLRNVASEGEGQILE [CLP2589] here?
The value was 800000.

And the “Titer (Final Bleed)” value (BFA4; [6])?
Its value is 2560000, 2560000.

And the “Titer (Bleed 2)” value (BFA4; [7])?
The value was 1600000.

And the “Titer (Final Bleed)” value (BFA4; [7])?
Its value is 2560000, 2560000.

Which “Strong CTL Killing” value [1] does the source give for ASLGLLTPV [CLP 2482] here?
Its value is “ASLGLLTPV”.
